# Paper PMC8117417, “Novel Trifluoromethyl Pyrimidinone Compounds With Activity Against Mycobacterium tuberculosis” (Frontiers in Chemistry, 2021)
# Values joined by “and” are separate entries in the source; they are usually repeats but may differ in a detail not shown here. Equal entries are not always repeated.
# What was measured:
# [1] = system: Mycobacterium smegmatis mc^2155; assay: Spectrum: MIC99 on solid medium, agar serial dilution; format: cell-based; parameters: unit not given here; settings: minimum concentration required to reduce CFUs by 99%, two independent runs
# [2] = system: Pseudomonas aeruginosa BAA 47; assay: as above; format: cell-based; parameters: unit not given here; settings: minimum concentration required to reduce CFUs by 99%, two independent runs
# [3] = system: Saccharomyces cerevisiae Y187; assay: as above; format: cell-based; parameters: unit not given here; settings: minimum concentration required to reduce CFUs by 99%, values of two independent runs
# [4] = system: Staphylococcus aureus RN4220; assay: as above; format: cell-based; parameters: unit not given here; settings: minimum concentration required to reduce CFUs by 99%, values of two independent runs
# K. pneumoniae = assay: as above; format: cell-based; parameters: unit not given here; settings: minimum concentration required to reduce CFUs by 99%, two independent runs
# Experimental: Minimum inhibitory concentration to inhibit growth of 99% (MIC99) on solid medium was determined using the agar serial dilution method. Late log phase cultures were plated at ~10^5 colony-forming units (CFU)/mL onto solid medium containing 2-fold serial dilutions of compounds. The MIC99 is defined as the lowest concentration with ≤1% growth.
# HepG2 human liver cells = assay: Cytotoxicity against HepG2 cells (CellTiter-Glo); format: cell-based; settings: concentration required to inhibit growth of HepG2 cells by 50%, 72 h exposure
# Experimental: Cytotoxicity was measured after 72 h of compound exposure at 37°C and 5% CO2 using CellTiter-Glo (Promega).
# Escherichia coli DH5α = assay: Spectrum: MIC99 on solid medium, agar serial dilution; format: cell-based; parameters: unit not given here; settings: minimum concentration required to reduce CFUs by 99%, two independent runs
# M. tuberculosis H37Rv = assay: Minimum inhibitory concentration (IC90) against fluorescent M. tuberculosis in liquid culture; settings: for IC90: read-out: MTB IC90
# [5] = system: Bacillus subtilis Marburg; assay: Spectrum: MIC99 on solid medium, agar serial dilution; format: cell-based; parameters: unit not given here; settings: minimum concentration required to reduce CFUs by 99%, values of two independent runs
# [6] = concentration required to inhibit M. tuberculosis growth by 90%, aerobic culture, 5 days, 7H9-OADC-Tw
Compound,melting point,"IC50 (HepG2 human liver cells; Homo sapiens, HepG2, 72 h)",IC90 (M. tuberculosis H37Rv; [6]),further results
"Cc1c(C(F)(F)F)nc(-c2ncccc2O)[nH]c1=O [Compound 33, 2-(3-Hydroxypyridin-2-yl)-5-Methyl-6-(Trifluoromethyl)Pyrimidin-4(3H)-One]",176 to 178 °C,3.2 ± 1.6 µM,2.5 ± 1.1 µM,"MIC99 M. smegmatis [1]: 25; MIC99 P. aeruginosa [2]: >100; MIC99 S. cerevisiae [3]: 3.1, 3.1; MIC99 S. aureus [4]: 3.1, 3.1; MIC99 K. pneumoniae (K. pneumoniae): >100; MIC99 E. coli (Escherichia coli DH5α): >100"
"Cc1c(C(F)(F)F)nc(-c2ccccc2C(F)(F)F)[nH]c1=O [Compound 42, 5-Methyl-6-(Trifluoromethyl)-2-(2-(Trifluoromethyl)Phenyl)pyrimidin-4(3H)-One]",168 to 170 °C,> 100 µM,> 20 µM,–
"Cc1c(C(F)(F)F)nc(-c2ncccn2)[nH]c1=O [Compound 41, 5-Methyl-6-(Trifluoromethyl)-[2,2′-Bipyrimidin]-4(3H)-One]",229 to 230 °C,> 100 µM,> 20 µM,–
"O=c1[nH]c(-c2ccccn2)nc(C(F)(F)F)c1-c1ccc(F)cc1 [Compound 53, 5-(4-Fluorophenyl)-2-(Pyridin-2-yl)-6-(Trifluoromethyl)Pyrimidin-4(3H)-One]",217 to 220 °C,11 ± 6.9 µM,3.8 ± 1.6 µM,"MIC99 M. smegmatis [1]: >100; MIC99 B. subtilis [5]: 6.3, 6.3; MIC99 P. aeruginosa [2]: >100; MIC99 S. aureus [4]: 3.1, 3.1; MIC99 K. pneumoniae (K. pneumoniae): >100; MIC99 E. coli (Escherichia coli DH5α): >100"
"CCc1c(C(F)(F)F)nc(-c2ccccn2)[nH]c1=O [Compound 55, 5-Ethyl-2-(Pyridin-2-yl)-6-(Trifluoromethyl)Pyrimidin-4(3H)-One]",122 to 124 °C,6.1 ± 1.3 µM,3.7 ± 0.26 µM,MIC99 M. smegmatis [1]: 100; MIC99 B. subtilis [5]: 6.3 and 5.0; MIC99 P. aeruginosa [2]: >100; MIC99 S. cerevisiae [3]: 3.1 and 5.0; MIC99 S. aureus [4]: 6.3 and 5.0; MIC99 K. pneumoniae (K. pneumoniae): >100; MIC99 E. coli (Escherichia coli DH5α): >100
"Cc1c(-c2ccccc2)nc(-c2ccccn2)[nH]c1=O [Compound 48, 5-Methyl-6-Phenyl-2-(Pyridin-2-yl)Pyrimidin-4(3H)-One]",140 to 141 °C,9.7 ± 5.5 µM,9.4 ± 0.67 µM,–
"Cc1cccc(C)c1-c1nc(C(F)(F)F)c(C)c(=O)[nH]1 [Compound 43, 2-(2,6-Dimethylphenyl)-5-Methyl-6-(Trifluoromethyl)Pyrimidin-4(3H)-One]",174 to 175 °C,> 100 µM,> 20 µM,HepG2 IC50 (HepG2 human liver cells): no cytotoxicity; MTB IC90 (M. tuberculosis H37Rv; [6]): no antibacterial activity
"O=c1[nH]c(-c2ccccn2)nc(C(F)(F)F)c1C1CCCCC1 [Compound 58, 5-Cyclohexyl-2-(Pyridin-2-yl)-6-(Trifluoromethyl)Pyrimidin-4(3H)-One]",220 to 221 °C,2.9 ± 0.28 µM,4.1 ± 0.28 µM,–
"O=c1cc(C(F)(F)F)nc(-c2cccnc2)[nH]1 [Compound 20, 2-(Pyridin-3-yl)-6-(Trifluoromethyl)Pyrimidin-4(3H)-One]",276 to 277 °C,> 100 µM,> 20 µM,–
"Cc1cccc(C)c1-c1nc(C(F)(F)F)cc(=O)[nH]1 [Compound 29, 2-(2,6-Dimethylphenyl)-6-(Trifluoromethyl)Pyrimidin-4(3H)-One]",201 to 202 °C,> 100 µM,> 20 µM,–
"Cc1c(C(F)(F)F)nc(-c2ccncc2)[nH]c1=O [Compound 23, 5-Methyl-2-(Pyridin-4-yl)-6-(Trifluoromethyl)Pyrimidin-4(3H)-One]",228 to 230 °C,> 100 µM,> 20 µM,–
"O=c1cc(C(F)(F)F)nc(C2CCCCC2)[nH]1 [Compound 27, 2-Cyclohexyl-6-(Trifluoromethyl)Pyrimidin-4(3H)-One]",198 to 199 °C,90 ± 17 µM,> 20 µM,–
"Cc1c(C(F)(F)F)nc(-c2ccccc2F)[nH]c1=O [Compound 36, 2-(2-Fluorophenyl)-5-Methyl-6-(Trifluoromethyl)pyrimidin-4(3H)-One]",139 to 141 °C,> 100 µM,> 20 µM,–
"Cc1c(C(F)(F)F)nc(C2CCCCC2)[nH]c1=O [Compound 40, 2-Cyclohexyl-5-Methyl-6-(Trifluoromethyl)Pyrimidin-4(3H)-One]",169 to 170 °C,> 100 µM,> 20 µM,–
"Cc1c(Cc2ccccc2)nc(-c2ccccn2)[nH]c1=O [Compound 47, 6-Benzyl-5-Methyl-2-(Pyridin-2-yl)Pyrimidin-4(3H)-One]",120 to 121 °C,9.8 ± 5.7 µM,5.7 ± 0.14 µM,–
"Cc1cnc(-c2ccccn2)[nH]c1=O [Compound 50, 5-Methyl-2-(Pyridin-2-yl)Pyrimidin-4(3H)-One]",148 to 149 °C,50 ± 13 µM,> 20 µM,–
"Cc1c(C(F)(F)F)nc(-c2ccccn2)[nH]c1=O [Compound 10, 5-Methyl-2-(Pyridin-2-yl)-6-(Trifluoromethyl)Pyrimidin-4(3H)-One]",–,7.3 µM,2.9 µM,"MIC99 M. smegmatis [1]: 25; MIC99 B. subtilis [5]: 12.5, 12.5; MIC99 P. aeruginosa [2]: >100; MIC99 S. cerevisiae [3]: 6.3 and 12.5; MIC99 S. aureus [4]: 12.5, 12.5; MIC99 K. pneumoniae (K. pneumoniae): >100; IC50 (HepG2 human liver cells): 5.4 ± 3.1 µM; MIC99 E. coli (Escherichia coli DH5α): >100; MIC (M. tuberculosis H37Rv; MTB IC90 assay, Figure 1 primary hits and reference drugs in this assay): 2.9 ± 0.47 µM"
"Cc1c(C(F)(F)F)nc(-c2cccnc2)[nH]c1=O [Compound 22, 5-Methyl-2-(Pyridin-3-yl)-6-(Trifluoromethyl)Pyrimidin-4(3H)-One]",213 to 215 °C,> 100 µM,> 20 µM,–
"O=c1[nH]c(-c2ccccn2)nc(C(F)(F)F)c1Cc1ccccc1 [Compound 52, 5-Benzyl-2-(Pyridin-2-yl)-6-(Trifluoromethyl)Pyrimidin-4(3H)-One]",173 to 174 °C,7.3 ± 4.2 µM,2.8 ± 0.78 µM,–
"Cc1c(C(F)(F)F)nc(-c2ccccc2Cl)[nH]c1=O [Compound 37, 2-(2-Chlorophenyl)-5-Methyl-6-(Trifluoromethyl)Pyrimidin-4(3H)-One]",165 to 167 °C,86 ± 24 µM,> 20 µM,–
"Cc1c(C(F)(F)F)nc(-c2ccccc2OC(F)(F)F)[nH]c1=O [Compound 44, 5-Methyl-2-(2-(Trifluoromethoxy)Phenyl)-6-(Trifluoromethyl)Pyrimidin-4(3H)-One]",167 to 168 °C,> 100 µM,> 20 µM,–
"COc1cccnc1-c1nc(C(F)(F)F)c(C)c(=O)[nH]1 [Compound 39, 2-(3-Methoxypyridin-2-yl)-5-Methyl-6-(Trifluoromethyl)Pyrimidin-4(3H)-One]",164 to 165 °C,> 100 µM,> 20 µM,–
"O=c1cc(C(F)(F)F)nc(-c2ccccc2)[nH]1 [Compound 24, 2-Phenyl-6-(Trifluoromethyl)Pyrimidin-4(3H)-One]",225 to 227 °C,> 100 µM,> 20 µM,–
"Cc1ccccc1-c1nc(C(F)(F)F)cc(=O)[nH]1 [Compound 30, 2-(o-Tolyl)-6-(Trifluoromethyl)Pyrimidin-4(3H)-One]",155 to 156 °C,> 100 µM,> 20 µM,–
"Cc1c(C(F)(F)F)nc(-c2ccccc2O)[nH]c1=O [Compound 46, 2-(2-Hydroxyphenyl)-5-Methyl-6-(Trifluoromethyl)Pyrimidin-4(3H)-One]",270 to 271 °C,44 ± 7.8 µM,> 20 µM,–
